# Results reported in PubChem BioAssay (NCI).
# Values joined by “and” are separate entries in the source; they are usually repeats but may differ in a detail not shown here. Equal values may be shown once.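 How tested: cells in 96-well plates exposed to compound for 48 hours at five concentrations. GI50 = concentration required for 50% inhibition of growth. TGI marks complete inhibition of growth.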
# Tested on: MDA-MB-468 breast
# Test: NCI tumour cell line growth inhibition, 48 h
Structure (SMILES),GI50 [nM],TGI
COc1cc(NC(=O)c2cc(O)c(C/C=C(\C)CCC=C(C)C)c(O)c2)cc2c1O[C@]1(C)CC[C@@H](O)C(C)(C)[C@H]1C2,2000,8.08 µM
CN(C)N=Nc1nn(C(=O)Nc2ccc(Cc3ccccc3)cc2)c2ccccc12,2940,> 100 µM
Nc1nc(Cl)nc2c1ncn2[C@@H]1O[C@H](COS(N)(=O)=O)[C@@H](O)[C@H]1O,17.6,0.0468 µM and 0.0396 µM
Cc1c(C(N)=O)sc2c1c(=O)n(Cc1ccccc1)c1nnc(S(=O)(=O)CC(=O)Nc3ccc(Cl)cc3)n21,12700,36.3 µM
Nc1ccc(-c2nnc(SCc3ccc(O)c4ncccc34)n2-c2ccccc2)cc1,35.8,1.85 µM
Cc1ccc(-c2c3c(N)c4c(nc3nc3c2c(C)nn3-c2ccccc2)CCC4)cc1,1970,5.15 µM
O=C1C=C(OCCCl)C(=O)c2c(O)ccc(O)c21,1640,3.86 µM
COc1cc2c3c(n(CCCNCC4CC4)c(=O)c2cc1OC)-c1cc2c(cc1C3=O)OCO2,1540,9.66 µM
CN(C)c1ncnc2c1ccn2C1OC(CO)C(O)C1O (stereo unspecified),231,1 µM
O=C1COCCN1c1ccc(NCc2cn(C(=O)c3ccc(Cl)cc3)c3ccccc23)cc1,101,0.286 µM
CCCC(CCC)C(=O)OCC1(CO)C/C(=C\c2ccc(C(F)(F)F)cc2)C(=O)O1 (stereo unspecified),16600,32.9 µM
c1ccc(/C(=N\Nc2ccc3ccccc3n2)c2ccccn2)cc1,364,5.82 µM
CNc1ncc2cc(Oc3ccc(F)cc3F)c(=O)n(C)c2n1,> 25000,> 25 µM
CCc1c2c(nc3ccc(OCc4ccc(B5OC(C)(C)C(C)(C)O5)cc4)cc13)-c1cc3c(c(=O)n1C2)COC(=O)[C@]3(O)CC,< 10,0.0432 µM
O=C(CN1C(=O)S/C(=C\C(Cl)=C\c2ccccc2)C1=O)NCCCn1ccnc1,1350,4.19 µM
CCCCN(CCCC)CCC(O)c1cc2ccc(C(F)(F)F)cc2c2cc(C(F)(F)F)ccc12 (stereo unspecified),1680,3.46 µM
CN(CCCN(C)CCC1CCCCC1)CCC1CCCCC1,1300,2.66 µM
CCc1nc(N)nc(N)c1C#CC(C)c1cc(-c2ccnc(C)c2)c2oc(C)nc2c1 (stereo unspecified),103,3 µM
CNC(=O)c1cncc(/C=C/c2c(Cl)cccc2Cl)c1,4080,> 19.1 µM
O=[N+]([O-])c1cc2c(ccc3occc32)o1,3180,17.1 µM
NS(=O)(=O)c1ccc(N2N=C(c3cccs3)CC2c2ccccc2O)cc1 (stereo unspecified),717,3.89 µM
O=C(Cn1c2ccccc2c2ccncc21)N/N=C\c1ccc2ccccc2c1,24400,65.5 µM
N/C(=N\c1nc2c(Br)cccc2s1)C(Br)Br,2570,9.69 µM
NCCSC(C[N+](=O)[O-])c1ccccc1Cl (stereo unspecified),2380,6.5 µM
O=CN1N=C(c2ccc(Nc3ccnc4cc(Cl)ccc34)cc2)CC1c1ccc(Cl)cc1 (stereo unspecified),318,8.33 µM
Cn1ncnc1C1c2n[nH]c(=O)c3cc(F)cc(c23)NC1c1ccc(F)cc1 (stereo unspecified),3740,> 100 µM
O=C1NC(SCc2ccc(F)cc2)=N/C1=C/c1cccc(OCc2ccc(Cl)cc2)c1,15800,> 100 µM
COc1cc2nc(N3CCC[C@@H](NC4=CC(=O)c5ccccc5C4=O)C3)nc(N)c2cc1OC,1810,3.77 µM
